For this experiment, the target named is T1, human parathyroid cell Ca^2+ receptor (hPCaR) (Homo sapiens, UniProt P41180).
T1 construct: expressed in transfected cells
T1 sequence (P41180 20-1078): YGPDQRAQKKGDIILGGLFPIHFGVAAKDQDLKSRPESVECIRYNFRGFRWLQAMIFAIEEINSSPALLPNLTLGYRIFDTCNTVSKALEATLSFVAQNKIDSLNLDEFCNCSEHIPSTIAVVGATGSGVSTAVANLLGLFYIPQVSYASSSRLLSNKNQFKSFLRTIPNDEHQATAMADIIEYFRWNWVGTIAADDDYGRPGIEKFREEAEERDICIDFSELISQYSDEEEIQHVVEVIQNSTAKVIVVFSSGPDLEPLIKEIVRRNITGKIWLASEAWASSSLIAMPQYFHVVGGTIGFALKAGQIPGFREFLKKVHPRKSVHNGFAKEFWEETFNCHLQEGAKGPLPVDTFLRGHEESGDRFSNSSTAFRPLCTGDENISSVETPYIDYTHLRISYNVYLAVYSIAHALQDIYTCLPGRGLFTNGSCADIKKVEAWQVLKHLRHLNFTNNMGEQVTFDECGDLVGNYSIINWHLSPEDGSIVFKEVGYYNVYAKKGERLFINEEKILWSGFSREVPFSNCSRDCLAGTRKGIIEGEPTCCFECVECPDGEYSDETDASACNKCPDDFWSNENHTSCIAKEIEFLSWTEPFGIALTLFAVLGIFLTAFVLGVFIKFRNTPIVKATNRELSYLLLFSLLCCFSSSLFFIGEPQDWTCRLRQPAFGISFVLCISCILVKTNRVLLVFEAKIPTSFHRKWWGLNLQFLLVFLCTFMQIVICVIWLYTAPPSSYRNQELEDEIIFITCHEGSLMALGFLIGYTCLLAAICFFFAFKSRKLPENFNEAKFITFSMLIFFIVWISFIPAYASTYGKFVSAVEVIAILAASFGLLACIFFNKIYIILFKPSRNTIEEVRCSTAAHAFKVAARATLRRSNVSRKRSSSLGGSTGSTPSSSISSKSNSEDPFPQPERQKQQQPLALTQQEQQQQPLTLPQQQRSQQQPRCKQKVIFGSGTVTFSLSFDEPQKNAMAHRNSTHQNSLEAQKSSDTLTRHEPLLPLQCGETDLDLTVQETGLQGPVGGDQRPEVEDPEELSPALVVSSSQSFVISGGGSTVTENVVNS
Nature of the experiment: [Ca2+]i measurement with fluo-3 in HEK 293 4.0-7 cells stably transfected with hPCaR. As to conditions: fluo-3 fluorescence (485/530 nm), effect on [Ca^2+]i. Type of experiment: cell-based. The gist of the method: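 HEK 293 cells stably expressing human parathyroid Ca2+ receptor (clone 4.0-7), loaded with 2 μM fluo-3 AM for 30 min at 37 °C in parathyroid cell buffer (pH 7.45) with 1 mM CaCl2 and 0.5% BSA. After compound addition, intracellular Ca2+ followed by fluorescence at 485 nm excitation/530 nm emission.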

A word on the EC50: it is the concentration at which the effect is half-maximal. Read a high EC50 as a less potent agent. The compound `C[C@@H](NCc1ccc(OC(F)F)c(-c2cccnc2)c1)c1cccc2ccccc12` [(1R)-N-((4-((difluoromethyl)oxy)-3-(3-pyridinyl)phenyl)methyl)-1-(1-naphthalenyl)ethanamine] gave an EC50 not above 10 µM.

`C[C@@H](NCc1cccc(-c2ccc(F)cc2)c1)c1ccccc1` [(1R)-N-((4′-fluoro-1,1′-biphenyl-3-yl)methyl)-1-phenylethanamine] gave an EC50 not above 10 µM.

Compound `COc1ccc([C@@H](C)NCc2ccc(OC)c(-c3ccc(F)cc3)c2)cc1` [(1R)-N-((4′-fluoro-6-(methyloxy)-1,1′-biphenyl-3-yl)methyl)-1-(4-(methyloxy)phenyl)ethanamine] gave an EC50 not above 10 µM.

With `C[C@@H](NCc1ccc(Cl)c(-c2ccc(OC(F)(F)F)cc2)c1)c1cccc2ccccc12` [(1R)-N-((6-chloro-4′-((trifluoromethyl)oxy)-1,1′-biphenyl-3-yl)methyl)-1-(1-naphthalenyl)ethanamine], the EC50 is not above 10 µM.

In turn, `COc1ccc(CN[C@H](C)c2cccc3ccccc23)cc1-c1ccc(OC(F)(F)F)cc1` [(1R)-N-((6-(methyloxy)-4′-((trifluoromethyl)oxy)-1,1′-biphenyl-3-yl)methyl)-1-(1-naphthalenyl)ethanamine] registered a half-maximal effective concentration (EC50) not above 10 µM.

`COc1ccc(CN[C@H](C)c2cccc3ccccc23)cc1-c1cnc2c(ccn2C)c1` [(1R)-N-((4-(methyloxy)-3-(1-methyl-1H-pyrrolo[2,3-b]pyridin-5-yl)phenyl)methyl)-1-(1-naphthalenyl)ethanamine] came in with a half-maximal effective concentration (EC50) not above 10 µM.

`COc1ccc(CNC(C)c2cccc(Br)c2)cc1-c1ccc(C(F)(F)F)cc1` (stereo not drawn) [1-(3-bromophenyl)-N-((6-(methyloxy)-4′-(trifluoromethyl)-1,1′-biphenyl-3-yl)methyl)ethanamine] gave an EC50 not above 10 µM.

Consider `COc1ccc(CN[C@H](C)c2ccccc2)cc1-c1ccc(=O)n(CC(F)(F)F)c1` [5-(2-(methyloxy)-5-((((1R)-1-phenylethyl)amino)methyl)phenyl)-1-(2,2,2-trifluoroethyl)-2(1H)-pyridinone], for which the EC50 is not above 10 µM.

In turn, `COc1ccc(CN[C@H](C)c2cccc3ccccc23)cc1-c1cnc(OCC(F)(F)F)nc1` [(1R)-N-((4-(methyloxy)-3-(2-((2,2,2-trifluoroethyl)oxy)-5-pyrimidinyl)phenyl)methyl)-1-(1-naphthalenyl)ethanamine] came in with an EC50 not above 10 µM.

On to `COc1ccc(CN[C@H](C)c2ccccc2)cc1-c1nccs1` [(1R)-N-((4-(methyloxy)-3-(1,3-thiazol-2-yl)phenyl)methyl)-1-phenylethanamine], for which the EC50 was not above 10 µM.

Compound `CCOc1ccc(-c2cc(CN[C@H](C)c3ccccc3)ccc2OC)cn1` [(1R)-N-((3-(6-(ethyloxy)-3-pyridinyl)-4-(methyloxy)phenyl)methyl)-1-phenylethanamine] showed an EC50 not above 10 µM.

`COc1cccc([C@@H](C)NCc2ccc(C(F)(F)F)c(-c3ccc(C(F)(F)F)cc3)c2)c1` [(1R)-N-((4′,6-bis(trifluoromethyl)-1,1′-biphenyl-3-yl)methyl)-1-(3-(methyloxy)phenyl)ethanamine] registered an EC50 not above 10 µM.

`COc1ccc(CN[C@H](C)c2cccc3ccccc23)cc1-c1ccc(C(N)=O)cc1` [2′-(methyloxy)-5′-((((1R)-1-(1-naphthalenyl)ethyl)amino)methyl)-1,1′-biphenyl-4-carboxamide] displayed an EC50 not above 10 µM.

In turn, `COc1ccc(CN[C@H](C)c2ccc(C)cc2)cc1-c1cnc(N)nc1` [5-(2-(methyloxy)-5-((((1R)-1-(4-methylphenyl)ethyl)amino)methyl)phenyl)-2-pyrimidinamine] yielded an EC50 not above 10 µM.

In the case of `COc1ccc(CN[C@H](C)c2ccccc2)cc1-c1csc(N2CCCCC2)n1` [(1R)-N-((4-(methyloxy)-3-(2-(1-piperidinyl)-1,3-thiazol-4-yl)phenyl)methyl)-1-phenylethanamine], the EC50 was not above 10 µM.

As to `COc1ccc(CN[C@H](C)c2ccccc2)cc1-c1ccc(C(N)=O)cc1` [2′-(methyloxy)-5′-((((1R)-1-phenylethyl)amino)methyl)-1,1′-biphenyl-4-carboxamide], the EC50 is not above 10 µM.

The compound `COc1ccc([C@@H](C)NCc2ccc(OC)c(-c3ccccc3)c2)cc1` [(1R)-N-((6-(methyloxy)-1,1′-biphenyl-3-yl)methyl)-1-(4-(methyloxy)phenyl)ethanamine] had an EC50 not above 10 µM.

`Cc1ccc([C@@H](C)NCc2cccc(-c3ccccc3C)c2)cc1` [(1R)-N-((2′-methyl-1,1′-biphenyl-3-yl)methyl)-1-(4-methylphenyl)ethanamine] displayed an EC50 not above 10 µM.

The compound `COc1ccc(CN[C@H](C)c2ccccc2)cc1-c1cccc(C(=O)O)c1` [2′-(methyloxy)-5′-((((1R)-1-phenylethyl)amino)methyl)-1,1′-biphenyl-3-carboxylic acid] displayed an EC50 not above 10 µM.

Regarding `COc1ccc(CN[C@H](C)c2cccc3ccccc23)cc1N1CCCC1` [(1R)-N-((4-(methyloxy)-3-(1-pyrrolidinyl)phenyl)methyl)-1-(1-naphthalenyl)ethanamine], the EC50 is not above 10 µM.

As for `COc1cccc([C@@H](C)NCc2cccc(-c3ccc(OC)nn3)c2)c1` [(1R)-1-(3-(methyloxy)phenyl)-N-((3-(6-(methyloxy)-3-pyridazinyl)phenyl)methyl)ethanamine], the EC50 was not above 10 µM.

Regarding `COc1ccc(CN[C@H](C)c2cccc3ccccc23)cc1-c1ccc(C(F)(F)F)cc1` [(1R)-N-((6-(methyloxy)-4′-(trifluoromethyl)-1,1′-biphenyl-3-yl)methyl)-1-(1-naphthalenyl)ethanamine], the concentration for a half-maximal effect (EC50) was not above 10 µM.

The compound `COc1cccc([C@@H](C)NCc2cccc(-c3ccccc3F)c2)c1` [(1R)-N-((2′-fluoro-1,1′-biphenyl-3-yl)methyl)-1-(3-(methyloxy)phenyl)ethanamine] showed an EC50 not above 10 µM.

Compound `COc1ccc(CN[C@H](C)c2ccc(C)cc2)cc1-c1ccsc1` [(1R)-N-((4-(methyloxy)-3-(3-thienyl)phenyl)methyl)-1-(4-methylphenyl)ethanamine] displayed an EC50 not above 10 µM.

As for `C[C@@H](NCc1ccc(Cl)c(-c2ccc(C(F)(F)F)cc2)c1)c1ccccc1` [(1R)-N-((6-chloro-4′-(trifluoromethyl)-1,1′-biphenyl-3-yl)methyl)-1-phenylethanamine], the EC50 was not above 10 µM.

`COc1ccc(CN[C@H](C)c2ccc(C)cc2)cc1-c1ccc(F)cc1` [(1R)-N-((4′-fluoro-6-(methyloxy)-1,1′-biphenyl-3-yl)methyl)-1-(4-methylphenyl)ethanamine]: the EC50 is not above 10 µM.

As for `COc1ccc(CN[C@H](C)c2cccc3ccccc23)cc1-c1csc2ccccc12` [(1R)-N-((3-(1-benzothien-3-yl)-4-(methyloxy)phenyl)methyl)-1-(1-naphthalenyl)ethanamine], the EC50 was not above 10 µM.

Regarding `COc1ccc(CN[C@H](C)c2ccccc2)cc1-c1ccnc(Cl)c1` [(1R)-N-(3-(2-chloropyrid-4-yl)-4-methoxyphenyl)methyl-N-1-phenylethylamine], the concentration giving a half-maximal response (EC50) is not above 10 µM.

Regarding `CCN(CC)CCCOc1ccc(-c2cc(CN[C@H](C)c3cccc(OC)c3)ccc2OC)cn1` [N-((3-(6-((3-(diethylamino)propyl)oxy)-3-pyridinyl)-4-(methyloxy)phenyl)methyl)-N-((1R)-1-(3-(methyloxy)phenyl)ethyl)amine], the EC50 was not above 10 µM.

Compound `COc1cccc([C@@H](C)NCc2ccc(OC)c(-c3ccc(C(=O)O)o3)c2)c1` [5-(2-(methyloxy)-5-((((1R)-1-(3-(methyloxy)phenyl)ethyl)amino)methyl)phenyl)-2-furancarboxylic acid] yielded an EC50 not above 10 µM.

Take `COc1ccc(-c2cccc(CN[C@H](C)c3ccc4ccccc4c3)c2)cc1` [(1R)-N-((4′-(methyloxy)-1,1′-biphenyl-3-yl)methyl)-1-(2-naphthalenyl)ethanamine]: the EC50 was not above 10 µM.

`COc1ccc(CN[C@H](C)c2cccc3ccccc23)cc1-c1ccc2c(c1)OC(F)(F)O2` [(1R)-N-((3-(2,2-difluoro-1,3-benzodioxol-5-yl)-4-(methyloxy)phenyl)methyl)-1-(1-naphthalenyl)ethanamine] had an EC50 not above 10 µM.

As for `COc1cccc([C@@H](C)NCc2ccc(OC)c(-c3ccc4c(c3)CCO4)c2)c1` [(1R)-N-((3-(2,3-dihydro-1-benzofuran-5-yl)-4-(methyloxy)phenyl)methyl)-1-(3-(methyloxy)phenyl)ethanamine], the EC50 is not above 10 µM.

The values are drawn from patent US6908935B2, “Calcium receptor modulating agents” (Amgen Inc., priority 2002, dated 2005).
